# Patent US9993459B2, “Selective HDAC6 inhibitors and uses thereof” (Universiteit Gent, priority 2015, dated 2018)
# Like-named read-outs stand apart in the source and are kept apart here.
# Assays:
# [1] = target: T1, HDAC6 (Homo sapiens, UniProt Q9UBN7); test: In vitro HDAC6 inhibition; format: biochemical; conditions: for inhibition at 10 µM: HDAC6, 10 μM
# T1 sequence (Q9UBN7 1-1215): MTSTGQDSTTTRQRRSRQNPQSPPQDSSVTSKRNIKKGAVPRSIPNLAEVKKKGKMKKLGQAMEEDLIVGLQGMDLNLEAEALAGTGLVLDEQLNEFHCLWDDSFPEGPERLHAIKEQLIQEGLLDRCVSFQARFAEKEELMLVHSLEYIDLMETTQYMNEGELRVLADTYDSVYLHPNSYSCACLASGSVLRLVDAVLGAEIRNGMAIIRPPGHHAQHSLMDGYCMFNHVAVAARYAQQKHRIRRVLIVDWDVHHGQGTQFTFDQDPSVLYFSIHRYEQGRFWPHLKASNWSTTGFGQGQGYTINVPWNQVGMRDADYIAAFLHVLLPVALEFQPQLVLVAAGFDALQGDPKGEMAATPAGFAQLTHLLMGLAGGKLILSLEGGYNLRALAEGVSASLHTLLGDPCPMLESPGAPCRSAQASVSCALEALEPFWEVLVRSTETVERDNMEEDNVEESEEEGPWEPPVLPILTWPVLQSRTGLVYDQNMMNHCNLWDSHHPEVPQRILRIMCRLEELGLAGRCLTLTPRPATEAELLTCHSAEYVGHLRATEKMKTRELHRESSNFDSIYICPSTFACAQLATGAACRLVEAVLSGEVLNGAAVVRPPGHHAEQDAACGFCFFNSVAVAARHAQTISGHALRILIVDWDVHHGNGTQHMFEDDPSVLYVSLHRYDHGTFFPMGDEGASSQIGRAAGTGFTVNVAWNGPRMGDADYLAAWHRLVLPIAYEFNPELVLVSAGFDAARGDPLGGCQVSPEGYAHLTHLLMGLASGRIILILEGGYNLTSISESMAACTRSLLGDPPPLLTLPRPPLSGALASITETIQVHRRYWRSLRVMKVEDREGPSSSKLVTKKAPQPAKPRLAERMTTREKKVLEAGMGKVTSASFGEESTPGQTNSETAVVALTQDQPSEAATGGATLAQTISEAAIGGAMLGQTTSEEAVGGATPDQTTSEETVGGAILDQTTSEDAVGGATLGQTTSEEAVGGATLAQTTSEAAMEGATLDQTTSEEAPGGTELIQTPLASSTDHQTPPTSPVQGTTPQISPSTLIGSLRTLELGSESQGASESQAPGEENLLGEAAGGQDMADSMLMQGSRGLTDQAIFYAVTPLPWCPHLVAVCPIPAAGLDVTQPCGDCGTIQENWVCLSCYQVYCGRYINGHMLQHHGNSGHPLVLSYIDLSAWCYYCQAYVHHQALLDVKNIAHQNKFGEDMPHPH
# [2] = target: HDAC1 (Homo sapiens, UniProt Q13547); test: In vitro HDAC isozyme selectivity screen: HDAC1; format: biochemical; conditions: for IC50: Table 2
# [3] = target: HDAC2 (Homo sapiens, UniProt Q92769); test: In vitro HDAC isozyme selectivity screen: HDAC2; format: biochemical; conditions: for IC50: Table 2
# [4] = target: HDAC4 (Homo sapiens, UniProt P56524); test: In vitro HDAC isozyme selectivity screen: HDAC4; format: biochemical; conditions: for IC50: Table 2
# [5] = target: T2, HDAC10 (Homo sapiens, UniProt Q969S8); test: In vitro HDAC isozyme selectivity screen: HDAC10; format: biochemical; conditions: Table 2
# T2 sequence (Q969S8 1-669): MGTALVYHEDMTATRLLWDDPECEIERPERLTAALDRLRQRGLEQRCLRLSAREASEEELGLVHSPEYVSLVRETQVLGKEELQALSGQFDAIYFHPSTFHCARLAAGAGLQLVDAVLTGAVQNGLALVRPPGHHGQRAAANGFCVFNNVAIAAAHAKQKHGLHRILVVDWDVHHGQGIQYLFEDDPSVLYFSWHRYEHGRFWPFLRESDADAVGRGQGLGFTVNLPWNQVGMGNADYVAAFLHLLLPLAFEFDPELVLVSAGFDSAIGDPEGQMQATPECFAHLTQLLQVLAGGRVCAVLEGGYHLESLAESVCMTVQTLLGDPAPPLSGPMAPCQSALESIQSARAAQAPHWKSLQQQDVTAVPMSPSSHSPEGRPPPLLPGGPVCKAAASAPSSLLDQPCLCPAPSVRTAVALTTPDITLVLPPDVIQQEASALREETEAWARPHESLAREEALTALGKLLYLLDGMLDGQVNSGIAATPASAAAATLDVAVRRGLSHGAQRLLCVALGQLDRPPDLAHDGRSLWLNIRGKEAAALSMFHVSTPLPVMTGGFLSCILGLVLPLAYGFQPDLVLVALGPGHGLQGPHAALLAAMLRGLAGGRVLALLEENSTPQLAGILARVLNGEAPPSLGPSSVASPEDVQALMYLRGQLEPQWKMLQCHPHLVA
# [6] = tested on: glucocorticoid receptor, GR; test: GRE-dependent luciferase reporter p(GRE)2-50-luc in A549 cells; format: cell-based; conditions: for DEX-activated GR-driven gene expression (transcriptional activity of GR): A549, 1 μM or 10 μM, 1 h pre-incubation then DEX 1 μM 5 h
# [7] = target: HDAC3 (Homo sapiens, UniProt O15379); test: In vitro HDAC isozyme selectivity screen: HDAC3; format: biochemical
# Chain of HDAC3 (O15379 whole entry, species assumed): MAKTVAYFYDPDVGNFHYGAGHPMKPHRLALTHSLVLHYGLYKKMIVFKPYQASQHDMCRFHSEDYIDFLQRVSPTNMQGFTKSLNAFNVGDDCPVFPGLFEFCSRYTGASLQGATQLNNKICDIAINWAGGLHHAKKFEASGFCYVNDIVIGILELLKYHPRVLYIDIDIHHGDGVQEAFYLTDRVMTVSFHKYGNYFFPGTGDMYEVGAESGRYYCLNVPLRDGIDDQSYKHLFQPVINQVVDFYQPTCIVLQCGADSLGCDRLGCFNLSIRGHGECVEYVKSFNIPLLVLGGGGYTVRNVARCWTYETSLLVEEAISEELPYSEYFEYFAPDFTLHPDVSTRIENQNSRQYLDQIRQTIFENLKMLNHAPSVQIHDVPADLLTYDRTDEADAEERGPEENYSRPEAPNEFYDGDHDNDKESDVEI
# Chain of HDAC3 (Q9Y618 395-489 partner limits assumed, species assumed): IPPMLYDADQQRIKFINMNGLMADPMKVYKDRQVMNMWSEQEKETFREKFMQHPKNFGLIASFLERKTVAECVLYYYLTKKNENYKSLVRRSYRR
# Chain of HDAC4 (P56524 whole entry, species assumed): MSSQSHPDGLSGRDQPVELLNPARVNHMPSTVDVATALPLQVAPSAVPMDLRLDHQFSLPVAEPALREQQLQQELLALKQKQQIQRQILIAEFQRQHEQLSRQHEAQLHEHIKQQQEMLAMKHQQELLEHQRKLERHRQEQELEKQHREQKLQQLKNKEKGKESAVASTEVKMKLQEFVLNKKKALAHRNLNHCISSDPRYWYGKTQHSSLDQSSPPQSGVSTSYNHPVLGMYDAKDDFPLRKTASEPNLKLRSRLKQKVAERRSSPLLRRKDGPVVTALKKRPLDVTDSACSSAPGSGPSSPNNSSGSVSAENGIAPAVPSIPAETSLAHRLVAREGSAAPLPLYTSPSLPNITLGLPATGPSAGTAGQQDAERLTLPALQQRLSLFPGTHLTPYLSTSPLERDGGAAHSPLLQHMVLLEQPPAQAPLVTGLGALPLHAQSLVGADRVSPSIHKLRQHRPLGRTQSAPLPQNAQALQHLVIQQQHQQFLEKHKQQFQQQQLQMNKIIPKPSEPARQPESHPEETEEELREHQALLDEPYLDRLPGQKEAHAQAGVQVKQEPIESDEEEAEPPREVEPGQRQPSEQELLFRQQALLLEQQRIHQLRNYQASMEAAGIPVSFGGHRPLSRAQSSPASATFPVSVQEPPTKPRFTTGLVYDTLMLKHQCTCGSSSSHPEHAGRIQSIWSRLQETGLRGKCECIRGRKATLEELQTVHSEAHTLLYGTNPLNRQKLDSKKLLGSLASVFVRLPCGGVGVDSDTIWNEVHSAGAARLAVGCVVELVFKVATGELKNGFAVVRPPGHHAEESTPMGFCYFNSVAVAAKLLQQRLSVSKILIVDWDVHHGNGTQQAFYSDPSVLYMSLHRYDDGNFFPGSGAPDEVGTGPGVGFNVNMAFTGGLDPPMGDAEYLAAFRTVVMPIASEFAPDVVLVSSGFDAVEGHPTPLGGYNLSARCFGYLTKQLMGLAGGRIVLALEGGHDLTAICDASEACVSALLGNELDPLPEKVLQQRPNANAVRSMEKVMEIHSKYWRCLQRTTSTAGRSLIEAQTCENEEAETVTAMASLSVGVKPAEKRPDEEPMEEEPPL
# Chain of HDAC2 (Q92769 whole entry, species assumed): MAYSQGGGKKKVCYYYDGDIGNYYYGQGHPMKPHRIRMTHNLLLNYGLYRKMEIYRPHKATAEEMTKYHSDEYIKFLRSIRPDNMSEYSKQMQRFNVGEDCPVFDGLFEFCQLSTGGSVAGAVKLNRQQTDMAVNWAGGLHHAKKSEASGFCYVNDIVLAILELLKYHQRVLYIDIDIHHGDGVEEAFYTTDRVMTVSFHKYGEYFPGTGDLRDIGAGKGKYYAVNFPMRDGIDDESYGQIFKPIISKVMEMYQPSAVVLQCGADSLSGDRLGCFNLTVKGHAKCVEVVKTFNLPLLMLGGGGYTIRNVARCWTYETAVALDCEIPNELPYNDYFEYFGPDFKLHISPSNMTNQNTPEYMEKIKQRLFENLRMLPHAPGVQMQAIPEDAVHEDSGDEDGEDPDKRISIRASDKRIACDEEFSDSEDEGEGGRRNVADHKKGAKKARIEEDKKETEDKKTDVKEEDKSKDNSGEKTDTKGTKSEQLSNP
# Chain of HDAC1 (Q13547 whole entry, species assumed): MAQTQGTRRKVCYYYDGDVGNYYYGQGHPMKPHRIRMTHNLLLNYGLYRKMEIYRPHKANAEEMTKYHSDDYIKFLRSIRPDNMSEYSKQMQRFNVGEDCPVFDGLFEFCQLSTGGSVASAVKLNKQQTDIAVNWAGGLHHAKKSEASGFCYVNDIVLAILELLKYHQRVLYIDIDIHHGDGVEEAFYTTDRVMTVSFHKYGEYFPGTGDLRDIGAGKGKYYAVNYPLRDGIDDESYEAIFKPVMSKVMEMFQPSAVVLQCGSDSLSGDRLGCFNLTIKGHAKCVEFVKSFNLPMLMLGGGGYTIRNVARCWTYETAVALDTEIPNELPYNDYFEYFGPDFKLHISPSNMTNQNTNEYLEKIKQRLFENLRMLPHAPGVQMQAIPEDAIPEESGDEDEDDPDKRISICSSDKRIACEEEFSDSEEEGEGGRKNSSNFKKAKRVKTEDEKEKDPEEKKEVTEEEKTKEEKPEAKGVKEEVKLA
inhibition at 10 µM [1],"IC50 ([1]; HDAC6, Table 1, read-out: IC50)",IC50 [3],IC50 [4],IC50 [5],"IC50 ([1]; Table 2, read-out: IC50 HDAC6)","effect at 100 μM, HDAC1 ([2]; 100 μM)","effect at 100 μM, HDAC2 ([3]; 100 μM)","effect at 100 μM, HDAC3 ([7]; 100 μM)","effect at 100 μM, HDAC4 ([4]; 100 μM)",IC50 ([7]; Table 2),SMILES,IC50 [2],DEX-activated GR-driven gene expression (transcriptional activity of GR) [6],"enhancement of GR-driven gene expression ([6]; A549, 1 μM, with DEX 1 μM)",melting point
99.2%,0.037 µM,> 100 µM,> 100 µM,33 µM,0.037 µM,less than 50%,less than 50%,less than 50%,less than 50%,–,"O=C(NO)c1ccc(NCc2csc3ccc(Br)cc23)cc1 [Compound 7b, 5-bromo-3-[(4-hydroxycarbamoylphenyl)aminomethyl]-benzothiophene]",–,leaves the transcriptional activity of GR unhampered,–,–
99.3%,0.064 µM,20 µM,31 µM,7.6 µM,–,–,–,–,–,6.6 µM,"O=C(NO)c1ccc(NCc2csc3cc(Br)ccc23)cc1 [Compound 13a, 6-bromo-3-[(4-hydroxycarbamoylphenyl)aminomethyl]-benzothiophene]",3.4 µM,–,–,179.5 °C

SMILES,inhibition at 10 µM [1],"IC50 ([1]; HDAC6, Table 1, read-out: IC50)",IC50 [3],IC50 [4],IC50 [5],"IC50 ([1]; Table 2, read-out: IC50 HDAC6)","effect at 100 μM, HDAC1 ([2]; 100 μM)","effect at 100 μM, HDAC2 ([3]; 100 μM)","effect at 100 μM, HDAC3 ([7]; 100 μM)","effect at 100 μM, HDAC4 ([4]; 100 μM)",IC50 ([7]; Table 2),IC50 [2],DEX-activated GR-driven gene expression (transcriptional activity of GR) [6],"enhancement of GR-driven gene expression ([6]; A549, 1 μM, with DEX 1 μM)",melting point
"O=C(NO)c1ccc(NCc2csc3ccccc23)cc1 [Compound 7a, 3-[(4-hydroxycarbamoylphenyl)aminomethyl]benzothiophene]",99.8%,0.014 µM,30 µM,10 µM,9.9 µM,–,–,–,–,–,–,7.5 µM,leaves the transcriptional activity of GR unhampered,able to significantly enhance GR-driven gene expression,191 °C
